Like-named read-outs stand apart in the source and are kept apart here.
How the values were obtained:
[1] = tested on: mouse bone marrow cells; conditions: cited from earlier work
[2] = tested on: Interleukin-3 dependent bone marrow cells; conditions: 10 micrograms per milliliter
Method: (§2) Bone marrow cells were obtained by flushing the femurs of three male B6D2F1 mice. The cells were plated at 5.0×10^5 /ml in MEM plus 10% fetal calf serum and 25 Units/ml of recombinant IL-3 for 24-48 hours. Non-adherent cells were then separated from adherent cells and maintained for an additional twelve days. IL-3 was washed from cells, and cells were plated in MEM plus 10% fetal calf serum in the presence or absence of IL-3 and with or without the addition of palmitoyldeoxyguanosine (10 micrograms per milliliter) or deoxyguanosine (10 micrograms per milliliter). Cells were counted using the trypan blue exclusion method, and the percent of dead cells (trypan blue positive) was determined at 24, 40, 60 and 84 hours following the wash.

[3] = tested on: Interleukin-3 dependent bone marrow cells; assay: cells; conditions: Mus musculus, Bone marrow cell, read-out: % Dead Cells
Method: as §2

[4] = tested on: hematopoietic recovery after cyclophosphamide; assay: Hematopoietic recovery after cyclophosphamide (Example 64); type: in vivo, Balb/C mice; conditions: day 7
Method: Fourteen female Balb/C mice weighing approximately 20 grams each received a 0.4 ml i.p. injection of either N-isobutyryldeoxyguanosine (50 mg/kg/treatment) in a Tween vehicle (0.2% Tween-80 in saline) or vehicle alone one time daily for five days following a single injection of cyclophosphamide (CP) (250 mg/kg, i.p.). On day 7 following CP administration all fourteen animals were bled and then sacrificed by cervical dislocation. Spleens were removed and weighed, and complete blood cell counts performed.

[5] = tested on: hematopoietic recovery after cyclophosphamide; assay: Hematopoietic recovery after cyclophosphamide, acyl chain length (Example 38); type: in vivo, Balb/C mice; conditions: day 7; guanosine 5, acyl derivatives 2.5 μmoles/mouse/day i.p.
Method: Cyclophosphamide (CP) (275 mg/kg, i.p.) was administered to 70 Balb/C female mice weighing approximately 20 grams each. Twenty-four hours later and each day thereafter for a total of 6 days, mice were given a 0.4 ml i.p injection of either physiological saline (controls), Tween 80 (0.2%), guanosine (5 μmoles/mouse/day in 0.2% Tween 80), or 2.5 μmoles per mouse per day of one of the following acylated derivatives of guanosine in 0.2% Tween 80: triacetylguanosine, octanoylguanosine, lauroylguanosine, or palmitoylguanosine. On day 7 following CP administration all 10 animals from each of the 7 groups were bled, and then sacrificed by cervical dislocation. Spleens were removed and weighed, and complete blood counts performed.

[6] = tested on: blood cell counts after 5-FU; assay: Pretreatment, recovery after 5-fluorouracil (Example 60); type: in vivo, Balb/C mice; conditions: 7 days after 5-FU
Method: (§1) Twelve female Balb/C mice weighing approximately 20 grams each received a 0.4 ml i.p. injection of either N-palmitoylguanine (25 mg/kg/treatment) in a Tween-DMSO vehicle (0.2% Tween-80 and 7.5% DMSO in saline) or vehicle alone one time daily for three days. On the fourth day 5-fluorouracil (5-FU; 150 mg/kg, i.p.) was administered to all twelve animals. On day 7 following 5-FU administration all twelve of these animals were bled and then sacrificed by cervical dislocation. Six untreated mice were also bled and sacrificed to provide data on normal (basal) values. Spleens were removed and weighed, and complete blood cell counts performed.

[7] = tested on: blood cell counts after cyclophosphamide; assay: Recovery after cyclophosphamide (Example 61); type: in vivo, Balb/C mice; conditions: 7 days after CP
Method: as §1, with “five days following a single injection of cyclophosphamide (CP) (250” for “three days. On the fourth day 5-fluorouracil (5-FU; 150”, “i.p.).” for “i.p.) was administered to all twelve animals.”, “CP” for “5-FU”

[8] = tested on: hematopoietic recovery after cyclophosphamide; assay: Hematopoietic recovery after cyclophosphamide (Example 37); type: in vivo, Balb/C mice; conditions: 5 μmoles/mouse/day i.p. 6 days; day 7; vs saline
Method: Twenty-four hours later and each day thereafter for a total of 6 days, mice were given a 0.4 ml i.p. injection of either physiological saline (controls), guanine (5 μmoles/mouse/day), or guanosine (5 μmoles/mouse/day). On day 7 all 10 mice in each of the three groups were bled, and then sacrificed by cervical dislocation. Spleens were removed and weighed, and complete blood cell counts performed.

[9] = tested on: human myeloid leukemia cell line (HL-60); conditions: cited from earlier work
[10] = in presence of post-endotoxin serum

SMILES: Nc1nc2c(ncn2[C@@H]2O[C@@H]3COP(=O)(O)O[C@H]3[C@H]2O)c(=O)[nH]1 [cGMP, 3',5'-cyclic guanosine monophosphate]
- number of colonies formed ([1]; in absence of post-endotoxin serum): no effect
- number of colonies formed [1, 10]: increase in the number of colonies formed

SMILES: Nc1nc2c(ncn2[C@H]2C[C@H](O)[C@@H](CO)O2)c(=O)[nH]1 [dG, deoxyguanosine]
- prevention of apoptotic cell death due to IL-3 deprivation [2]: did nothing to prevent apoptotic cell death due to IL-3 deprivation
- cytotoxicity at 10 µg/mL ([3]; 24 h): 15.5 ± 0.5%
- cytotoxicity at 10 µg/mL ([3]; 40 h): 21.5 ± 3.5%
- cytotoxicity at 10 µg/mL ([3]; 60 h): 46.3 ± 10.3%
- cytotoxicity at 10 µg/mL ([3]; 84 h): 68.3 ± 6%

SMILES: CC(C)C(=O)Nc1nc2c(ncn2[C@H]2C[C@H](O)[C@@H](CO)O2)c(=O)[nH]1 [N-isobutyryldeoxyguanosine]
- spleen weight ([4]; 50 mg/kg/treatment, control 72.7±2.7, p<.001, in mg (unit assumed)): 116.3±8.0
- lymphocyte counts ([4]; control 1.2±0.2, p<.02): 2.1±0.2
- total neutrophil counts ([4]; control 3.3±0.4, p<.001): 6.6±0.5
- white blood cell counts ([4]; control 4.6±0.5, p<.001): 8.9±0.5

SMILES: CCCCCCCCCCCC(=O)OC[C@H]1O[C@@H](n2cnc3c(=O)[nH]c(N)nc32)[C@H](O)[C@@H]1O [laurolyguanosine, Lauroylguanosine]
- spleen weight [5]: significantly larger spleens

SMILES: CCCCCCCCCCCCCCCC(=O)Nc1nc2nc[nH]c2c(=O)[nH]1 [NPG, N^2 -Palmitoylguanine]
- Lymphocytes ([6]; 25 mg/kg/treatment): 4.5 ± .5 K/μl
- Platelets ([6]; 25 mg/kg/treatment): 787 ± 72 K/μl
- WBC ([6]; 25 mg/kg/treatment): 4.6 ± .5 K/μl
- Spleen ([6]; 25 mg/kg/treatment i.p., 3 days before): 79 ± 3 mg
- Neutrophils ([7]; 25 mg/kg/treatment): 5.5 ± .5 K/μl
- Platelets ([7]; 25 mg/kg/treatment): 774 ± 734 K/μl
- WBC ([7]; 25 mg/kg/treatment): 7.3 ± .6 K/μl
- Spleen ([7]; 25 mg/kg/treatment i.p., 5 days): 145 ± 13 mg

SMILES: Nc1nc2nc[nH]c2c(=O)[nH]1 [guanine]
- Neutrophils [8]: significantly more
- spleen weight [8]: significantly heavier spleens
- total white blood cells [8]: significantly more
- effect on induced maturation of HL-60 cells ([9]; HL-60 with inducing agents): prevented their induced maturation into functional neutrophils

SMILES: Nc1nc2c(ncn2[C@@H]2O[C@H](COP(=O)(O)O)[C@@H](O)[C@H]2O)c(=O)[nH]1 [5'-guanosine monophosphate]
- number of colonies formed [1, 10]: inactive

SMILES: NC(=O)c1csc([C@@H]2O[C@H](CO)[C@@H](O)[C@H]2O)n1 [tiazofurin, reference compound]
- conversion of immature blast cells into mature granulocytes ([9]; HL-60 in vitro): induced

— patent publication US6054441A, “Oxypurine nucleosides and their congeners, and acyl derivatives thereof, for improvement of hematopoiesis” (priority 1995, dated 2000)
